How the values were obtained:
[1] = during idelalisib; cited from earlier work
[2] = cited from earlier work
[3] = system: male C57/BL6 mice, PCI model; experiment: Survival rate in cholestasis model under septic conditions, peritoneal contamination and infection (PCI); format: in vivo; settings: 4 mg/kg body weight
Protocol: In order to mimic the septic cholestasis, a systemic inflammation was induced using the well-established peritoneal contamination and infection (PCI) model. In this model, a human faeces suspension is applied intraperitoneally (i.p.) and rapidly triggers sepsis with liver dysfunction.
For each batch of human stool, the dose is titrated carefully for a survival between 0% and 20% within two weeks.
To find the adequate dose of stool, different doses were tested. 6 h after i.p. application of the stool, 8-12 weeks old C57/BL6 mice or FVB/N mice were treated with the nanoparticles or the free drug respectively.
A systemic infection/sepsis with organ failure was induced in male C57/BL6 mice by using the PCI model. For this purpose, a human fecal suspension (2.5 μl/g BW for stool batch1 and 6 μl/g for stool batch 2, respectively) was injected intraperitoneally (without anesthesia) with weight adaptation, thus triggering peritonitis with subsequent systemic infection. […] The animals were closely monitored and scored every 6 hours for signs of infection in order to timely. […] With the evaluated dose of 6 μl/g BW stool and additional antibiotic therapy, all mice died within three days, as shown in the Kaplan-Meier-Schatzer diagram (FIG. 11, right panel). […]

## CC[C@H](Nc1ncnc2[nH]cnc12)c1nc2cccc(F)c2c(=O)n1-c1ccccc1 [idelalisib]
[1]
  risk of developing sepsis as adverse effect compared to placebo: five-fold higher risk

## CO[C@@H]1[C@H](N(C)C(=O)c2ccccc2)C[C@H]2O[C@]1(C)n1c3ccccc3c3c4c(c5c6ccccc6n2c5c31)C(=O)NC4 [midostaurin]
[2]; 16 patients, most commonly from infection (sepsis or pneumonia)
  On-treatment death unrelated to the underlying malignancy: 11%
[2]; patients on midostaurin
  Grade≥3 adverse reactions (fatigue, sepsis, gastrointestinal hemorrhage, pneumonia, diarrhea, febrile neutropenia) reported in: ≥ 5%
  Serious adverse reactions most commonly due to infections and gastrointestinal disorders: 20%
  Serious adverse reactions reported: 68 % of patients
  Treatment discontinuation due to adverse reaction: 21 % of patients

## CN(C)CCCn1cc(C2=C(c3c[nH]c4ccccc34)C(=O)NC2=O)c2ccccc21 [BIM-1]
[3]
  activity of the free drug alone (dose evaluation, survival): active

## O=C1NC(=O)/C(=C\c2ccc3nccnc3c2)S1 [AS605240]
[3]
  activity of the free drug alone (dose evaluation, survival): active

— patent publication US12472259B2, “PKC inhibitors for the treatment of septic cholestasis with polymethine dye targeting” (SMARTDYELIVERY GMBH, priority 2018, dated 2025)
